The assay concerns 883617-216-R-J1-PDC complex spheroids, growth, % test/control. The assay can be described thus: Anticancer human tumor 883617-216-R-J1-PDC patient-derived bladder carcinoma cell line growth inhibition [AhR]. The conditions noted are these: for viability, T/C: stronger effect = lower value. In short, it runs like this:
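Agents were dosed in half-log steps down from roughly clinical Cmax, or from 10 microM where Cmax was unknown, alone and with AhR antagonists. Read-out: percent test/control growth of tumor spheroids containing HUVEC and MSC stromal cells.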

The mark [1] stands for this setting: curve of first compound, second compound 0.1 µM.
[2] abbreviates: curve of first compound, second compound 0.316 µM.
The mark [3] stands for this setting: curve of first compound, second compound 1 µM.
The mark [4] stands for this setting: curve of first compound, second compound 3.16 µM.
Where [5] appears, read: curve of first compound, second compound 10 µM.
Setting [6] is: second compound 0.1 µM, first compound 0.0316 µM.
[7] abbreviates: second compound 0.1 µM, first compound 0.1 µM.
Setting [8] is: second compound 0.1 µM, first compound 0.316 µM.
Setting [9] is: second compound 0.1 µM, first compound 1 µM.
[10] abbreviates: second compound 0.1 µM, first compound 3.16 µM.
The mark [11] stands for this setting: second compound 0.1 µM, first compound 10 µM.
[12] abbreviates: second compound 0.316 µM, first compound 0.0316 µM.
Where [13] appears, read: second compound 0.316 µM, first compound 0.1 µM.
Where [14] appears, read: second compound 0.316 µM, first compound 0.316 µM.
Where [15] appears, read: second compound 0.316 µM, first compound 1 µM.
The mark [16] stands for this setting: second compound 0.316 µM, first compound 3.16 µM.
Setting [17] is: second compound 0.316 µM, first compound 10 µM.
The mark [18] stands for this setting: second compound 1 µM, first compound 0.0316 µM.
[19] abbreviates: second compound 1 µM, first compound 0.1 µM.
The mark [20] stands for this setting: second compound 1 µM, first compound 0.316 µM.
The mark [21] stands for this setting: second compound 1 µM, first compound 1 µM.
Setting [22] is: second compound 1 µM, first compound 3.16 µM.
[23] abbreviates: second compound 1 µM, first compound 10 µM.
The mark [24] stands for this setting: second compound 3.16 µM, first compound 0.0316 µM.
[25] abbreviates: second compound 3.16 µM, first compound 0.1 µM.
Setting [26] is: second compound 3.16 µM, first compound 0.316 µM.
The mark [27] stands for this setting: second compound 3.16 µM, first compound 1 µM.
Setting [28] is: second compound 3.16 µM, first compound 3.16 µM.
Where [29] appears, read: second compound 3.16 µM, first compound 10 µM.
[30] abbreviates: second compound 10 µM, first compound 0.0316 µM.
Setting [31] is: second compound 10 µM, first compound 0.1 µM.
Setting [32] is: second compound 10 µM, first compound 0.316 µM.
[33] abbreviates: second compound 10 µM, first compound 1 µM.
The mark [34] stands for this setting: second compound 10 µM, first compound 3.16 µM.
The mark [35] stands for this setting: second compound 10 µM, first compound 10 µM.

SMILES strings stand for the structures. Several values for one entry are separate records, joined by “and”; a condition that tells them apart may be missing. Equal entries are not always repeated.

This is an account of results in PubChem BioAssay AID1919004 (Molecular Pharmacology Branch, DTP, NCI, 2023).

By IC50 is commonly meant the point on the concentration scale where inhibition reaches its midpoint. By viability, T/C is commonly meant the ratio of treated to control.
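Note: exposure lasted 7 days after dosing on day 3 of spheroid growth.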

With `Nc1ncn(C2CC(O)C(CO)S2)c(=O)n1` (centres undefined) + Cc1cncc(-c2nc(NCCc3c[nH]c4ccccc34)c3ncn(C(C)C)c3n2)c1, the IC50 under setting [1] was > 0.3 µM; the concentration for half-maximal inhibition (IC50) under setting [2] was > 0.3 µM; the IC50 under setting [3] was > 0.3 µM; the IC50 under setting [4] is > 0.3 µM; the IC50 under setting [5] was > 0.3 µM. In addition, the viability, T/C was 93.3% (second compound 0.1 µM, first compound 0.000949 µM); 88.9% (second compound 0.1 µM, first compound 0.003 µM); 94.6% (second compound 0.1 µM, first compound 0.00949 µM); 89.9% (second compound 0.1 µM, first compound 0.03 µM); 87.3% (second compound 0.1 µM, first compound 0.0949 µM); 81.9% (second compound 0.1 µM, first compound 0.3 µM). Further, the viability, T/C (second compound 0.316 µM, first compound 0.000949 µM) is 95%; the viability, T/C (second compound 0.316 µM, first compound 0.003 µM) was 104%; the viability, T/C (second compound 0.316 µM, first compound 0.00949 µM) was 103%; the viability, T/C (second compound 0.316 µM, first compound 0.03 µM) is 90.7%; the viability, T/C (second compound 0.316 µM, first compound 0.0949 µM) was 91.7%; the viability, T/C (second compound 0.316 µM, first compound 0.3 µM) was 81.6%. The viability, T/C reads like this: (second compound 1 µM, first compound 0.000949 µM) 105%; (second compound 1 µM, first compound 0.003 µM) 119%; (second compound 1 µM, first compound 0.00949 µM) 106%; (second compound 1 µM, first compound 0.03 µM) 107%; (second compound 1 µM, first compound 0.0949 µM) 92.4%; (second compound 1 µM, first compound 0.3 µM) 94.8%. Also, the viability, T/C was 82.8% (second compound 3.16 µM, first compound 0.000949 µM); 82.6% (second compound 3.16 µM, first compound 0.003 µM); 82.4% (second compound 3.16 µM, first compound 0.00949 µM); 88.2% (second compound 3.16 µM, first compound 0.03 µM); 76.7% (second compound 3.16 µM, first compound 0.0949 µM); 83.1% (second compound 3.16 µM, first compound 0.3 µM). The viability, T/C reads like this: (second compound 10 µM, first compound 0.000949 µM) 54.5%; (second compound 10 µM, first compound 0.003 µM) 62.4%; (second compound 10 µM, first compound 0.00949 µM) 59%; (second compound 10 µM, first compound 0.03 µM) 57.3%; (second compound 10 µM, first compound 0.0949 µM) 46.4%; (second compound 10 µM, first compound 0.3 µM) 61.5%.

For the molecule `CC1COCCN1c1cc(-c2ccnn2C)c2ccnc(-c3ccn[nH]3)c2n1` (centres undefined), the viability, T/C by setting is: (compound 0.00316 µM) 104% and 105% and 107%; (compound 0.01 µM) 97.6% and 103% and 86.6%; (compound 0.0316 µM) 100% and 93.5% and 68%; (compound 0.1 µM) 72.3% and 75.9% and 62.1%; (compound 0.316 µM) 65.9% and 55.5% and 80.2%; (compound 1 µM) 51% and 51.4% and 54.9%. For the same molecule, the IC50 (curve of compound) is > 1 µM.

On to `COc1ccc([C@@H](O)c2cc(-c3ncnc4cc(N5CCOCC5)ccc34)c(F)cc2Cl)nn1` + CC(CO)NC(=O)c1cc(-c2ccc(Cl)cc2)nn(-c2cnn(C)c2)c1=O, for which the IC50 is, setting by setting: under setting [1], 9.07 µM; under setting [2], 8.4 µM; under setting [3], 10 µM; under setting [4], 10 µM; under setting [5], 3.52 µM. The viability, T/C runs as follows: under setting [6], 83%; under setting [7], 94.7%; under setting [8], 76.8%; under setting [9], 75.9%; under setting [10], 60.1%; under setting [11], 49.1%. For the same molecule, the viability, T/C runs as follows: under setting [12], 69.9%; under setting [13], 128%; under setting [14], 83.1%; under setting [15], 63.9%; under setting [16], 124%; under setting [17], 42.2%. Besides, the viability, T/C was 86.4% under setting [18]; 99.7% under setting [19]; 55.9% under setting [20]; 58.9% under setting [21]; 61.4% under setting [22]; 42.1% under setting [23]. The viability, T/C is 64.8% under setting [24]; 135% under setting [25]; 73.6% under setting [26]; 61.7% under setting [27]; 37.1% under setting [28]; 51.6% under setting [29]. The viability, T/C under setting [30] was 119%; the viability, T/C under setting [31] was 81.7%; the viability, T/C under setting [32] was 88.7%; the viability, T/C under setting [33] was 73.4%; the viability, T/C under setting [34] is 51.1%; the viability, T/C under setting [35] is 32.4%.

Consider `NS(=O)(=O)OCC1CC(n2ccc3c(NC4CCc5ccccc54)ncnc32)CC1O` (centres undefined), for which the viability, T/C is 154% and 163% and 90.4% (compound 0.0316 µM); 209% and 200% and 81.5% (compound 0.1 µM); 214% and 242% and 83.6% (compound 0.316 µM); 140% and 130% and 64% (compound 1 µM); 48.6% and 34.8% and 33.6% (compound 3.16 µM); 24.7% and 20.3% and 48.3% (compound 10 µM). Moreover, the IC50 (curve of compound) is 3.12 µM and 2.45 µM and 2.01 µM.

For `Nc1ccn(C2OC(CO)C(O)C2(F)F)c(=O)n1` (centres undefined) + Cc1cncc(-c2nc(NCCc3c[nH]c4ccccc34)c3ncn(C(C)C)c3n2)c1, the IC50 is < 0.0316 µM under setting [1]; < 0.0316 µM under setting [2]; < 0.0316 µM under setting [3]; 0.0708 µM under setting [4]; < 0.0316 µM under setting [5]. The viability, T/C reads like this: under setting [6], 32.6%; under setting [7], 39.7%; under setting [8], 43.1%; under setting [9], 41.3%; under setting [10], 44%; under setting [11], 38.9%. The viability, T/C was 34.5% under setting [12]; 38.8% under setting [13]; 44.9% under setting [14]; 38.4% under setting [15]; 39.5% under setting [16]; 39.4% under setting [17]. Further, the viability, T/C runs as follows: under setting [18], 46.1%; under setting [19], 33.8%; under setting [20], 39.3%; under setting [21], 37.5%; under setting [22], 41.9%; under setting [23], 43.4%. Besides, the viability, T/C was 71.3% under setting [24]; 39.3% under setting [25]; 40.6% under setting [26]; 41.2% under setting [27]; 43.5% under setting [28]; 39.1% under setting [29]. In addition, the viability, T/C is, setting by setting: under setting [30], 33.1%; under setting [31], 16.4%; under setting [32], 13.5%; under setting [33], 10.9%; under setting [34], 15.8%; under setting [35], 18%.
